Experimental data as given in article PMC4138103 (PLoS ONE, 2014).

Experiments:
Assay type in all cases: in vivo, Rattus norvegicus
Sprague-Dawley rats [1] = experiment: Open field test for locomotor activity; conditions: for Emax: Rattus norvegicus; for Habituation, distance, CED / Habituation, distance, CED-L / Habituation, time, CED / Habituation, time, CED-L / Percent distance in inner zone, day 24, CED / Percent distance in inner zone, day 24, CED-L / Percent time in inner zone, day 24, CED / Percent time in inner zone, day 24, CED-L: total dose based
Procedure: During the last 5 days of the study (days 24–28), rats were tested for locomotor activity in an octagonal open field (diameter 75 cm). The behavior was recorded on videotapes and automatically evaluated with a program for behavioral analyses (Ethovision, Noldus, NL). Each rat was tested for 5 min on each of the 5 days to allow the examination of habituation. Sequence of the rats to be tested was varied according to a permutation scheme to exclude a systematic influence of daytime on the outcome. For analyses, the area of the open field was divided in an inner zone (diameter 50 cm) and an outer ring (width 12.5 cm). Total distance moved during the recording period, distance moved in the inner zone of the open field, distance moved in outer zone, time in inner zone, and time in outer zone were extracted as parameters from the recordings.
(§1) Data were also analyzed using the BMD method, which is based on dose-response modeling of the full data set using a nested family of exponential and Hill models. The analyses were done on data of males and females combined, using sex as a covariate. […] In that case, different Critical Effect Doses (CEDs) and CEDs at the lowest bound of the confidence interval (CED-L) were generated for each sex. If no difference between sexes is detected, a CED and CED-Ls for the combined data is generated. However, this was also done if the curve fits are close, and separate analyses for males and females were then performed manually. CEDs and CED-Ls were calculated at the predefined Critical Effect Size (CES) of 5% (EFSA standard) or 10%.

Sprague-Dawley rats [2] = experiment: Sperm analyses, cauda epididymis; conditions: males
Procedure: Frozen right cauda epididymides were homogenized for 2 min using Ultra Turrax homogenizer (model T25 basic, IKA-WERKE GmbH, Staufen, Germany) in 20 ml 0.9% saline containing 0.05% Triton X-100 and 0.01% thiomersal. Homogenates were diluted to about 1×10^6 sperms/ml, and counts from 4 hemocytometer chambers were counted and averaged.

Sprague-Dawley rats [3] = experiment: Bone biomechanics, three-point bending test of tibial shaft; conditions: for CED, F yield / CED-L, F yield: adipose tissue concentration based; for Emax: Rattus norvegicus
Procedure: For biomechanical testing hind limbs were defrosted and tibial shafts tested with a three-point bending test using a custom made testing apparatus, [34]. Each bone was placed on a support with a span length of 13 mm and bending load was applied with a constant speed of 0.155 mm/sec until failure. The breaking force, bending stiffness and yield force were defined from load-displacement data. Stiffness was calculated as the slope of the linear part of load-displacement curve. Yield force was defined as a corresponding force where the fit for stiffness separated from the measured load-displacement curve. The breaking force was defined as bending load at maximum. Corresponding to these forces also both failure and yield deformations were evaluated.
as §1

[4] = F, CES 5%, model E2, adipose tissue concentration based
[5] = F, CES 5%, model E4, adipose tissue concentration based
[6] = F, CES 10%, model E2, adipose tissue concentration based
[7] = F, CES 10%, model E4, adipose tissue concentration based
[8] = females, CES 5%, adipose tissue concentration based
[9] = females, adipose tissue concentration based
[10] = females, CES 5%, total dose based

Clc1cc(Cl)c(-c2cc(Cl)c(Cl)c(Cl)c2Cl)cc1Cl [PCB 180, 2,2′,3′,4,4′,5,5′-heptachlorobiphenyl]
CED, Habituation, distance (Sprague-Dawley rats [1]; [4]): 1340 µg/g lipid | CED, Habituation, time (Sprague-Dawley rats [1]; [4]): 1130 µg/g lipid | CED-L, Habituation, distance (Sprague-Dawley rats [1]; [4]): 865 µg/g lipid | CED-L, Habituation, time (Sprague-Dawley rats [1]; [4]): 739 µg/g lipid | CED, Percent distance in inner zone, day 24 (Sprague-Dawley rats [1]; [5]): 4.12 µg/g lipid | CED, Percent time in inner zone, day 24 (Sprague-Dawley rats [1]; [5]): 1.55 µg/g lipid | CED-L, Percent distance in inner zone, day 24 (Sprague-Dawley rats [1]; [5]): 1.16 µg/g lipid | CED-L, Percent time in inner zone, day 24 (Sprague-Dawley rats [1]; [5]): 0.525 µg/g lipid | CED, Habituation, distance (Sprague-Dawley rats [1]; [6]): 2740 µg/g lipid | CED, Habituation, time (Sprague-Dawley rats [1]; [6]): 2320 µg/g lipid | CED-L, Habituation, distance (Sprague-Dawley rats [1]; [6]): 1777 µg/g lipid | CED-L, Habituation, time (Sprague-Dawley rats [1]; [6]): 1518 µg/g lipid | CED, Percent distance in inner zone, day 24 (Sprague-Dawley rats [1]; [7]): 8.69 µg/g lipid | CED, Percent time in inner zone, day 24 (Sprague-Dawley rats [1]; [7]): 3.17 µg/g lipid | CED-L, Percent distance in inner zone, day 24 (Sprague-Dawley rats [1]; [7]): 2.423 µg/g lipid | CED-L, Percent time in inner zone, day 24 (Sprague-Dawley rats [1]; [7]): 1.07 µg/g lipid | Emax (Sprague-Dawley rats [1]; 576 h, F, model E4, controls vs high dose according to the fitted model, read-out: Maximum response, Percent distance in inner zone, day 24): 53% | Emax (Sprague-Dawley rats [1]; 576 h, F, model E4, controls vs high dose according to the fitted model, read-out: Maximum response, Percent time in inner zone, day 24): 111% | Emax (Sprague-Dawley rats [1]; 576 h, females, controls vs high dose, fitted model, read-out: Percent distance in inner zone, day 24, Maximum response): 53% | Emax (Sprague-Dawley rats [1]; 576 h, females, controls vs high dose, fitted model, read-out: Percent time in inner zone, day 24, Maximum response): 107% | Emax (Sprague-Dawley rats [1]; F, model E2, controls vs high dose according to the fitted model, read-out: Maximum response, Habituation, distance): -35.2% | Emax (Sprague-Dawley rats [1]; F, model E2, controls vs high dose according to the fitted model, read-out: Maximum response, Habituation, time): -40.1% | Emax (Sprague-Dawley rats [1]; females, controls vs high dose, fitted model, read-out: Habituation, distance, Maximum response): -33.2% | Emax (Sprague-Dawley rats [1]; females, controls vs high dose, fitted model, read-out: Habituation, time, Maximum response): -37.7% | Percentage of distance moved in inner zone, day 24, CED (Sprague-Dawley rats [1]; [8]): 4.12 µg/g lipid | Percentage of time in inner zone, day 24, CED (Sprague-Dawley rats [1]; [8]): 1.55 µg/g lipid | Habituation, distance, CED (Sprague-Dawley rats [1]; females, CES 5%): 216 mg/kg bw | Habituation, distance, CED-L (Sprague-Dawley rats [1]; females, CES 5%): 138 mg/kg bw | Habituation, time, CED (Sprague-Dawley rats [1]; females, CES 5%): 184 mg/kg bw | Habituation, time, CED-L (Sprague-Dawley rats [1]; females, CES 5%): 118 mg/kg bw | Percent distance in inner zone, day 24, CED (Sprague-Dawley rats [1]; females, CES 5%): 0.87 mg/kg bw | Percent distance in inner zone, day 24, CED-L (Sprague-Dawley rats [1]; females, CES 5%): 0.25 mg/kg bw | Percent time in inner zone, day 24, CED (Sprague-Dawley rats [1]; females, CES 5%): 0.35 mg/kg bw | Percent time in inner zone, day 24, CED-L (Sprague-Dawley rats [1]; females, CES 5%): 0.11 mg/kg bw | Habituation, distance, CED (Sprague-Dawley rats [1]; females, CES 10%): 444 mg/kg bw | Habituation, distance, CED-L (Sprague-Dawley rats [1]; females, CES 10%): 283 mg/kg bw | Habituation, time, CED (Sprague-Dawley rats [1]; females, CES 10%): 378 mg/kg bw | Habituation, time, CED-L (Sprague-Dawley rats [1]; females, CES 10%): 243 mg/kg bw | Percent distance in inner zone, day 24, CED (Sprague-Dawley rats [1]; females, CES 10%): 1.84 mg/kg bw | Percent distance in inner zone, day 24, CED-L (Sprague-Dawley rats [1]; females, CES 10%): 0.53 mg/kg bw | Percent time in inner zone, day 24, CED (Sprague-Dawley rats [1]; females, CES 10%): 0.71 mg/kg bw | Percent time in inner zone, day 24, CED-L (Sprague-Dawley rats [1]; females, CES 10%): 0.23 mg/kg bw | Habituation, percentage of distance moved, CED (Sprague-Dawley rats [1]; [9]): 1340 µg/g lipid | Habituation, time in inner zone, CED (Sprague-Dawley rats [1]; [9]): 1130 µg/g lipid | Spontanous locomotor activity, CED-L (Sprague-Dawley rats [1]; [9]): 525 ng/g lipid | Altered open field behavior, CED-L (Sprague-Dawley rats [1]; females, critical effect for risk characterization): 0.525 µg/g lipid | Open field behavior, dose-response relations (Sprague-Dawley rats [1]; males): No significant dose-response relations | Cauda epididymal sperm density (Sprague-Dawley rats [2]; 1700 mg/kg bw vs control): not affected | Sperm density (Sprague-Dawley rats [2]; total dose 1700 mg/kg bw, cauda epididymis, group mean): 691 106/g tissue | Sperm count (Sprague-Dawley rats [2]; total dose 1700 mg/kg bw, group mean): 94.0 106/cauda epididymis | CED, F yield (Sprague-Dawley rats [3]; F, CES 5%, model E2): 2860 µg/g lipid | CED-L, F yield (Sprague-Dawley rats [3]; F, CES 5%, model E2): 1647 µg/g lipid | CED, F yield (Sprague-Dawley rats [3]; F, CES 10%, model E2): 5880 µg/g lipid | CED-L, F yield (Sprague-Dawley rats [3]; F, CES 10%, model E2): 3384 µg/g lipid | Emax (Sprague-Dawley rats [3]; F, model E2, controls vs high dose according to the fitted model, read-out: Maximum response, F yield): -18.3% | Emax (Sprague-Dawley rats [3]; females, controls vs high dose, fitted model, read-out: F yield, Maximum response): -16.7% | F yield, CED (Sprague-Dawley rats [3]; [10]): 476 mg/kg bw | F yield, CED-L (Sprague-Dawley rats [3]; [10]): 266 mg/kg bw | F yield, CED (Sprague-Dawley rats [3]; females, CES 10%, total dose based): 978 mg/kg bw
